Results reported in ChEMBL document CHEMBL1130422, “A refined model for the somatostatin pharmacophore: conformational analysis of lanthionine-sandostatin analogs” (J Med Chem, 1997).
Where a SMILES comes first, the peptide text is derived from it. Bridges are numbered along the chain shown (N, C = ends). [ ]: non-standard residue; d: D form. d(aThr) = C[C@@H](O)[C@@H](N)C(=O)O

The molecules below were run against Somatostatin receptor type 2 (Mus musculus, UniProt P30875) (assay: Compound was tested for the inhibition of mSSTR2b).
Sequence of Somatostatin receptor type 2 (P30875 whole entry): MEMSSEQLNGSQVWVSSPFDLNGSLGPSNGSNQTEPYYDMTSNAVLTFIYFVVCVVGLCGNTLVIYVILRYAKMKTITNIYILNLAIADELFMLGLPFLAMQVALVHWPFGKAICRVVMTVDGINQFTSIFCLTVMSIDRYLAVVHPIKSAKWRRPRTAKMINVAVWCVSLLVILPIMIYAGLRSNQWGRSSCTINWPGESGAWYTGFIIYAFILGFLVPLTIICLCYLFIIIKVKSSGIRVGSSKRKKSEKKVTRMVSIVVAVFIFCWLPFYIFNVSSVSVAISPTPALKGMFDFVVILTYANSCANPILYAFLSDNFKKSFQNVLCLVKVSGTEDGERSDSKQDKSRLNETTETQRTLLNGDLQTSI

Row | Structure (SMILES) | IC50 [nM]
1 | C[C@@H](O)[C@H](NC(=O)[C@@H]1CSSC[C@H](NC(=O)[C@H](N)Cc2ccccc2)C(=O)N[C@@H](Cc2ccccc2)C(=O)N[C@H](Cc2c[nH]c3ccccc23)C(=O)N[C@@H](CCCCN)C(=O)N[C@@H]([C@@H](C)O)C(=O)N1)C(=O)O | 0.28
2 | C[C@@H](O)[C@H](NC(=O)[C@@H]1CSC[C@H](NC(=O)[C@H](N)Cc2ccccc2)C(=O)N[C@@H](Cc2ccccc2)C(=O)N[C@H](Cc2c[nH]c3ccccc23)C(=O)N[C@@H](CCCCN)C(=O)N[C@@H]([C@@H](C)O)C(=O)N1)C(N)=O | 15.6

These molecules were tested against T1, Somatostatin receptor type 5 (Rattus norvegicus, UniProt P30938) (assay: Compound was tested for the inhibition of rSSTR5).
T1 sequence (P30938 whole entry): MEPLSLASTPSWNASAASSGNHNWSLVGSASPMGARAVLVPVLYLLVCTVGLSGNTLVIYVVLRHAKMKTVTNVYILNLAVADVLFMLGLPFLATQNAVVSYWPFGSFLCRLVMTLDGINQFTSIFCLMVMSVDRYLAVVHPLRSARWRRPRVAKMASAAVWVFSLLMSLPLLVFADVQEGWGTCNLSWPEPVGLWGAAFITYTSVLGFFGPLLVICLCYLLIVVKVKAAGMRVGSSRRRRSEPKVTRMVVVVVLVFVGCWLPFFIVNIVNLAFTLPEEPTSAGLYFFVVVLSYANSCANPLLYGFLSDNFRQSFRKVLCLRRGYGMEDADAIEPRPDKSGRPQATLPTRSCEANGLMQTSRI

Row | Structure (SMILES) | IC50 [nM]
3 | C[C@@H](O)[C@@H](NC(=O)[C@H]1CSSC[C@H](NC(=O)[C@@H](N)Cc2ccccc2)C(=O)N[C@@H](Cc2ccccc2)C(=O)N[C@H](Cc2c[nH]c3ccccc23)C(=O)N[C@@H](CCCCN)C(=O)N[C@H]([C@@H](C)O)C(=O)N1)C(=O)O | 1.04
4 | C[C@@H](O)[C@H](NC(=O)[C@@H]1CSC[C@@H](NC(=O)[C@H](N)Cc2ccccc2)C(=O)N[C@H](Cc2ccccc2)C(=O)N[C@@H](Cc2c[nH]c3ccccc23)C(=O)N[C@H](CCCCN)C(=O)N[C@@H]([C@@H](C)O)C(=O)N1)C(N)=O | 5.5
5 | C[C@@H](O)[C@@H]1NC(=O)[C@@H](CCCCN)NC(=O)[C@H](Cc2c[nH]c3ccccc23)NC(=O)[C@@H](Cc2ccccc2)NC(=O)[C@H](NC(=O)[C@H](N)Cc2ccccc2)CSC[C@@H](C(=O)O)NC1=O | 500
6 | C[C@@H](O)[C@H]1NC(=O)[C@H](CCCCN)NC(=O)[C@@H](Cc2c[nH]c3ccccc23)NC(=O)[C@H](Cc2ccccc2)NC(=O)[C@@H](NC(=O)[C@@H](N)Cc2ccccc2)CSSC[C@H](C(=O)O)NC1=O (H-FCF[dW]K[d(aThr)][dC]-OH; disulfide 2-7) | 10.6
